In US20150118305A1, “COMPOSITIONS COMPRISING SULFORAPHANE OR A SULFORAPHANE PRECURSOR AND URSOLIC ACID” (Nutramax Laboratories, Inc., priority 2012, published 2015):
Values belong to the compound of their own block, whether it stands above or below them.

Columns and labels:
[1] = system: matrix metalloproteinase-9 (MMP-9) gene expression; test: MMP-9 gene expression in PC3 cells by quantitative RT-PCR (Example 6); assay type: cell-based; conditions: PC3, 24 hours
Experimental: The following study was conducted to determine the effect of the combination of sulforaphane and ursolic acid on matrix metalloproteinase-9 (MMP-9) gene expression. The MMP-9 gene encodes the protein that is known to degrade the extracellular matrix, which is the support system of cells. In prostate, colon, brain, and other cancers, MMP9 expression is increased, and this increase has been correlated with metastasis. A decrease in MMP-9 is favorable for these cancers.
In the study, the prostate cancer cell line PC3 was treated with DMSO (vehicle control), sulforaphane (SFN), ursolic acid (UA), or the combination of sulforaphane and ursolic acid, for 24 hours. Gene expression of MMP-9 was analyzed via quantitative RT-PCR. FIGS. 5a and 5b and FIG. C show the results of the study.
Two separate treatments were conducted. […] The following reductions in gene expression of MMP-9 were observed: (i) a 5% decrease with 1 μM SFN alone, (ii) a 31% decrease with 5 μg/mL UA alone, and (iii) a 40% decrease with the combination of 1 μM SFN and 5 μg/mL UA. […] The following reductions in gene expression of MMP-9 were observed: (i) a 13% decrease with 1 μM SFN alone, (ii) a 28% decrease with 5 μg/mL UA alone, and (iii) a 45% decrease with the combination of 1 μM SFN and 5 μg/mL UA.
The following reductions in gene expression of MMP-9 were observed: (i) a 39% decrease with 5 μM SFN alone, (ii) a 15% decrease with 10 μg/mL UA alone, and (iii) a 59% decrease with the combination of 5 μM SFN and 10 μg/mL UA.

[2] = system: broccoli sprout-derived myrosinase; test: Consumption of glucoraphanin by myrosinase as a function of ascorbic acid concentration (Example 3); assay type: biochemical; conditions: for glucoraphanin (GR) content of reaction mixture: 38° C.
Experimental: About 250 mg of broccoli seed extract containing about 12% (w/w) glucoraphanin were subjected to hydrolysis by a fixed concentration of broccoli sprout-derived myrosinase in the presence of variable concentration of ascorbic acid, ranging from 0 to 600 μmoles/Liter. The reaction mixtures were thermostated at 38° C.; aliquots were withdrawn every 15 minutes for 60 minutes, and concentration of glucoraphanin determined chromatographically. The rate of glucoraphanin consumption was interpreted as the rate its conversion to sulforaphane. Graphical representation of glucoraphanin content reduction as a function of increasing ascorbic acid concentration results in a series of linear plots; the slopes of the linear regression lines reflect the rate of glucoraphanin consumption, in pmoles/minute. It is apparent that in the presence of 600 μmoles/Liter concentration of ascorbic acid, the reaction rate increased 13-fold relative to that which proceeded in the absence of modulatory effects of ascorbic acid.

myrosinase [3] = test: Conversion of glucoraphanin to sulforaphane in Simulated Intestinal Fluid (Example 5); assay type: biochemical, broccoli; conditions: 38° C., 0.25 to 1.00 mmol/Liter ascorbic acid, FIG. 4
Experimental: Simulated Intestinal Fluid (SIF) powder, a commercially supplied concentrate closely approximating the human intestinal content in terms of composition, pH and ionic strength, was used. The experiment utilized a USP Dissolution Apparatus 2 (paddles), where into six dissolution vessels 500 mL of Simulated Intestinal Fluid was dispensed, along with 150 mg of freeze-dried broccoli sprout powder as a source of myrosinase. […] Aliquots were withdrawn every 15 minutes, and assayed for sulforaphane.

myrosinase [4] = test: Equimolar conversion of glucoraphanin to sulforaphane, ascorbic acid modulating myrosinase activity (Example 4); assay type: biochemical; conditions: Part 2; 250 mg broccoli seed extract
Experimental: A two-part experiment was conducted to further elucidate the role of ascorbic acid in modulating myrosinase activity. […] A control sample contained no ascorbic acid, and the enzymatic conversion proceeded unassisted by a co-factor. PART 1. […] PART 2. While keeping the amount of broccoli seed extract fixed at 250 mg, the concentration of ascorbic acid was varied from 0.4 mmol/Liter to 3.8 mmol/Liter.

heme oxygenase-1 (HO-1) = conditions: oral administration; mammary epithelium; cited from earlier work
[5] = system: NAD(P)H:quinine oxidoreductase (NQO1); conditions: oral administration; mammary epithelium; cited from earlier work

SMILES: C[C@H]1[C@H](C)CC[C@]2(C(=O)O)CC[C@]3(C)C(=CC[C@@H]4[C@@]5(C)CC[C@H](O)C(C)(C)[C@@H]5CC[C@]43C)[C@H]12 [UA, (1S,2R,4aS,6aR,6aS,6bR,8aR,10S,12aR,14bS)-10-hydroxy-1,2,6a,6b,9,9,12a-heptamethyl-2,3,4,5,6,6a,7,8,8a,10,11,12,13,14b-tetradecahydro-1H-picene-4a-carboxylic acid]
decrease in gene expression of MMP-9 ([1]; 5 μg/mL UA alone, Part 1 first treatment (FIG. 5a)): 31%
decrease in gene expression of MMP-9 ([1]; 5 μg/mL UA alone, Part 1 second treatment (FIG. 5b)): 28%
decrease in gene expression of MMP-9 ([1]; 10 μg/mL UA alone, Part 2 (FIG. 6)): 15%

ascorbic acid concentration up to which myrosinase-promoted conversion increases apparently linearly, then levels off (myrosinase [4]): about 2 mmol/L
SMILES: O=C1O[C@H]([C@@H](O)CO)C(O)=C1O [Ascorbic Acid, ascorbic acid]
Slope of linear regression (rate of glucoraphanin consumption) ([2]; 50 μM ascorbic acid): -0.286 µmol/min
glucoraphanin (GR) content of reaction mixture ([2]; 50 μM ascorbic acid, 0 min): 93.36 µmol
glucoraphanin (GR) content of reaction mixture ([2]; 50 μM ascorbic acid, 15 min): 89.20 µmol
glucoraphanin (GR) content of reaction mixture ([2]; 50 μM ascorbic acid, 30 min): 84.24 µmol
glucoraphanin (GR) content of reaction mixture ([2]; 50 μM ascorbic acid, 45 min): 80.30 µmol
glucoraphanin (GR) content of reaction mixture ([2]; 50 μM ascorbic acid, 60 min): 76.36 µmol
Slope of linear regression (rate of glucoraphanin consumption) ([2]; 125 μM ascorbic acid): -0.5622 µmol/min
glucoraphanin (GR) content of reaction mixture ([2]; 125 μM ascorbic acid, 0 min): 93.36 µmol
glucoraphanin (GR) content of reaction mixture ([2]; 125 μM ascorbic acid, 15 min): 84.52 µmol
glucoraphanin (GR) content of reaction mixture ([2]; 125 μM ascorbic acid, 30 min): 75.92 µmol
glucoraphanin (GR) content of reaction mixture ([2]; 125 μM ascorbic acid, 45 min): 68.09 µmol
glucoraphanin (GR) content of reaction mixture ([2]; 125 μM ascorbic acid, 60 min): 59.41 µmol
Slope of linear regression (rate of glucoraphanin consumption) ([2]; 250 μM Filtered ascorbic acid): -0.4714 µmol/min
glucoraphanin (GR) content of reaction mixture ([2]; 250 μM Filtered ascorbic acid, 0 min): 93.36 µmol
glucoraphanin (GR) content of reaction mixture ([2]; 250 μM Filtered ascorbic acid, 15 min): 86.31 µmol
glucoraphanin (GR) content of reaction mixture ([2]; 250 μM Filtered ascorbic acid, 30 min): 79.44 µmol
glucoraphanin (GR) content of reaction mixture ([2]; 250 μM Filtered ascorbic acid, 45 min): 71.94 µmol
glucoraphanin (GR) content of reaction mixture ([2]; 250 μM Filtered ascorbic acid, 60 min): 65.18 µmol
Slope of linear regression (rate of glucoraphanin consumption) ([2]; 250 μM ascorbic acid): -0.7901 µmol/min
glucoraphanin (GR) content of reaction mixture ([2]; 250 μM ascorbic acid, 0 min): 93.36 µmol
glucoraphanin (GR) content of reaction mixture ([2]; 250 μM ascorbic acid, 15 min): 80.95 µmol
glucoraphanin (GR) content of reaction mixture ([2]; 250 μM ascorbic acid, 30 min): 69.06 µmol
glucoraphanin (GR) content of reaction mixture ([2]; 250 μM ascorbic acid, 45 min): 57.63 µmol
glucoraphanin (GR) content of reaction mixture ([2]; 250 μM ascorbic acid, 60 min): 45.76 µmol
Slope of linear regression (rate of glucoraphanin consumption) ([2]; 400 μM ascorbic acid): -1.007 µmol/min
glucoraphanin (GR) content of reaction mixture ([2]; 400 μM ascorbic acid, 0 min): 93.36 µmol
glucoraphanin (GR) content of reaction mixture ([2]; 400 μM ascorbic acid, 15 min): 78.32 µmol
glucoraphanin (GR) content of reaction mixture ([2]; 400 μM ascorbic acid, 30 min): 62.78 µmol
glucoraphanin (GR) content of reaction mixture ([2]; 400 μM ascorbic acid, 45 min): 47.67 µmol
glucoraphanin (GR) content of reaction mixture ([2]; 400 μM ascorbic acid, 60 min): 33.15 µmol
Slope of linear regression (rate of glucoraphanin consumption) ([2]; 600 μM ascorbic acid): -1.2 µmol/min
glucoraphanin (GR) content of reaction mixture ([2]; 600 μM ascorbic acid, 0 min): 93.36 µmol
glucoraphanin (GR) content of reaction mixture ([2]; 600 μM ascorbic acid, 15 min): 75.02 µmol
glucoraphanin (GR) content of reaction mixture ([2]; 600 μM ascorbic acid, 30 min): 55.66 µmol
glucoraphanin (GR) content of reaction mixture ([2]; 600 μM ascorbic acid, 45 min): 37.50 µmol
glucoraphanin (GR) content of reaction mixture ([2]; 600 μM ascorbic acid, 60 min): 22.09 µmol
increase of reaction rate relative to absence of ascorbic acid ([2]; 600 μmoles/Liter ascorbic acid): 13 fold
sulforaphane yield versus ascorbic acid concentration (myrosinase [3]): direct correlation between larger yield of sulforaphane and higher concentrations of ascorbic acid

SMILES: C[S+]([O-])CCCCN=C=S (centres unmarked) [SFN, 1-isothiocyanato-4-methylsulfinylbutane]
decrease in gene expression of MMP-9 ([1]; 1 μM SFN alone, Part 1 first treatment (FIG. 5a)): 5%
decrease in gene expression of MMP-9 ([1]; 1 μM SFN alone, Part 1 second treatment (FIG. 5b)): 13%
decrease in gene expression of MMP-9 ([1]; 5 μM SFN alone, Part 2 (FIG. 6)): 39%
elevated immunostaining of HO-1 enzyme (heme oxygenase-1 (HO-1)): 4 fold
increase in NQO1 enzymatic activity [5]: 3 fold
